Literature values, collected in PMC6247902 (Cancer immunology research, 2018).
pKd: −log10 of the molar value.

Tested on: serum albumin
Settings: read-out: affinity for serum albumin, KD

For `Cc1c(C)c2c(c(C)c1O)CC[C@@](C)(CCC[C@H](C)CCC[C@H](C)CCCC(C)C)O2` [α-tocopherol], the pKd is given as roughly 5.15.
